Experimental data from patent US8017644B2, “2-arylindole derivatives as nPGES-1 inhibitors” (Aziende Chimiche Riunite Angelini Francesco A.C.R.A.F. …, priority 2006, dated 2011).

How the values were obtained:
[1] = system: production of PGE2 in A549 cells (mPGES-1); experiment: Inhibition of PGE2 production in IL-1β-stimulated A549 cells (EIA); assay type: cell-based; details: Homo sapiens; for inhibition at 10 µM: compound at 10 μm; for IC50: IL-1β-stimulated, read-out: pIC50 PGE2 (converted)
Text: (§1) The test used makes it possible to evaluate the inhibitory capacity of the test compounds on the production of PGE2 and the selectivity relative to the production of PGF2α. The human pulmonary adenocarcinoma cell line A549 was used, which is particularly sensitive to stimulation with proinflammatory cytokines, for instance IL-1β, and, in response to this stimulation, is particularly active in the production and release of two prostanoids: PGE2 and PGF2α (Thoren S. Jakobsson P-J, 2000).
(§2) The cells were stimulated with IL-1β (10 ng/ml) and simultaneously treated with the test compound for 22 hours in a suitable culture medium (DMEM—Dulbecco's Modified Eagles Medium) enriched with 5% fetal calf serum and L-glutamine (4 mM final) in an incubator at 37° C. and with a CO2 concentration of 5%.
(§3) At the end of the incubation, the amount of PGE2 and PGF2α, produced and released into the supernatant were assayed using an EIA kit (produced and sold by Cayman Chemicals, Ann Arbor, Mich., USA).
(§4) The comparative compound used was indomethacin at a concentration of 10 nM (Sigma-Aldrich), which is a non-steroidal anti-inflammatory drug that inhibits in equal measure both PGE2 and PGF2α.
(§5) For illustrative purposes, Table 3 collates the pIC50 values of a number of compounds of the invention, where pIC50 represents the negative logarithm of the IC50, which, in turn, represents the concentration of compound that inhibits the production of PGE2 or PGF2α by 50% relative to cells that are stimulated but not treated with the same compound.

[2] = system: production of PGF2α in A549 cells; experiment: Inhibition of PGF2α production in IL-1β-stimulated A549 cells (EIA), selectivity; assay type: cell-based; details: Homo sapiens; for inhibition at 10 µM: compound at 10 μm; for IC50: IL-1β-stimulated, read-out: pIC50 PGF2α (converted)
Text: as §1, §2, §3, §4, §5

[3] = system: acetic acid-induced stretching in mice; experiment: Acetic acid-induced stretching in mice (inflammatory pain); assay type: in vivo; details: female CD-1 mice; for No. of stretches: 20 minutes after acetic acid, vehicle 52; for % inhibition (stretches): vs vehicle (MTC)
Procedure: The test compound was evaluated in the model of acetic acid-induced stretching in mice (Stock J. L. et al., J Clin Inv 2001, 107: 325-331). This test makes it possible to evaluate the antinociceptive activity of the compounds of the invention in a model of inflammatory pain.
Female CD-1 mice weighing 25-30 g were used for the test. The animals were treated intraperitoneally with the test compound (0.1-10 mg/kg) suspended in methylcellulose (MTC). The control animals were treated with the vehicle alone (MTC) via the same route.
30 minutes after the treatment, the animals received an intraperitoneal injection of acetic acid (0.7 v/v in physiological solution, 16 μl/g of body weight) in order to induce inflammatory pain and to check the effects of the test compound on the nociceptive response.
Immediately after the administration of acetic acid and for the following 20 minutes, the number of stretches, which represents the parameter for evaluation of the nociceptive response, was measured.

[4] = system: production of PGE2 in U-937 cells (cPGES); experiment: Inhibition of basal PGE2 production in U-937 cells (selectivity between isoforms of PGES); assay type: cell-based; details: Homo sapiens, basal conditions; for inhibition at 10 µM: compound at 10 μM
Text: The test used makes it possible to evaluate the capacity of the compounds of the invention to inhibit the production of PGE2 in a human lymphoma cell line U-937 that preferentially expresses an enzymatic isoform (cPGES), which is responsible for the production of PGE2 under basal conditions, in the absence of pro-inflammatory stimuli. This enzymatic form is different from the one predominantly expressed in the A549 cells (mPGES-1) after a pro-inflammatory stimulus.
The absence of inhibitory activity on PGE2 in this cell model ensures the selectivity of the compound compared with the enzymatic form responsible for the production of PGE2 in the presence of inflammatory stimuli.
The reference compound used was indomethacin at a concentration of 10 nM.

[5] = indomethacin at 10 nM, IL-1β 10 ng/ml, 22 hours

Cn1c(-c2ccccc2)cc2cc(NC(=O)c3ccccc3Cl)ccc21 [Compound 1]
inhibition at 10 µM ([1]; IL-1β 10 ng/ml, 22 hours): 63% | inhibition at 10 µM ([2]; IL-1β 10 ng/ml, 22 hours): < 20%

CCn1c(-c2ccccc2)cc2cc(NC(=O)c3ccccc3Cl)ccc21 [Compound 2]
IC50 [1]: 2000 nM | inhibition at 10 µM ([1]; IL-1β 10 ng/ml, 22 hours): 76% | No. of stretches ([3]; 0.1 mg/kg intraperitoneally): 38 | % inhibition (stretches) ([3]; 0.1 mg/kg intraperitoneally): 27% | No. of stretches ([3]; 1 mg/kg intraperitoneally): 36 | % inhibition (stretches) ([3]; 1 mg/kg intraperitoneally): 31% | No. of stretches ([3]; 10 mg/kg intraperitoneally): 25 | % inhibition (stretches) ([3]; 10 mg/kg intraperitoneally): 52% | inhibition at 10 µM [4]: < 20% | inhibition at 10 µM ([2]; IL-1β 10 ng/ml, 22 hours): < 20%

CC(C)n1c(-c2ccccc2)cc2cc(NC(=O)c3ccccc3Cl)ccc21 [Compound 3]
inhibition at 10 µM ([1]; IL-1β 10 ng/ml, 22 hours): 91% | inhibition at 10 µM ([2]; IL-1β 10 ng/ml, 22 hours): 34%

CCn1c(-c2ccccc2F)cc2cc(NC(=O)c3ccccc3Cl)ccc21 [Compound 4]
inhibition at 10 µM ([1]; IL-1β 10 ng/ml, 22 hours): 72% | inhibition at 10 µM ([2]; IL-1β 10 ng/ml, 22 hours): < 20%

CCn1c(-c2cccc(F)c2)cc2cc(NC(=O)c3ccccc3Cl)ccc21 [Compound 5]
inhibition at 10 µM ([1]; IL-1β 10 ng/ml, 22 hours): 91% | inhibition at 10 µM ([2]; IL-1β 10 ng/ml, 22 hours): 36%

CCn1c(-c2ccc(F)cc2)cc2cc(NC(=O)c3ccccc3Cl)ccc21 [Compound 6]
IC50 [1]: 1580 nM | inhibition at 10 µM ([1]; IL-1β 10 ng/ml, 22 hours): 82% | inhibition at 10 µM [4]: < 20% | inhibition at 10 µM ([2]; IL-1β 10 ng/ml, 22 hours): < 20%

CCn1c(-c2ccccc2)c(C)c2cc(NC(=O)c3ccccc3Cl)ccc21 [Compound 7]
inhibition at 10 µM ([1]; IL-1β 10 ng/ml, 22 hours): 90% | inhibition at 10 µM ([2]; IL-1β 10 ng/ml, 22 hours): 39%

CCn1c(-c2ccccc2)cc2cc(NC(=O)c3ccccc3C(F)(F)F)ccc21 [Compound 9]
IC50 [1]: 1260 nM | inhibition at 10 µM ([1]; IL-1β 10 ng/ml, 22 hours): 100% | inhibition at 10 µM [4]: < 20% | IC50 [2]: 50100 nM | inhibition at 10 µM ([2]; IL-1β 10 ng/ml, 22 hours): < 20%

CCn1c(-c2ccccc2)cc2cc(NC(=O)c3c(Cl)cccc3Cl)ccc21 [Compound 10]
IC50 [1]: 2000 nM | inhibition at 10 µM ([1]; IL-1β 10 ng/ml, 22 hours): 76% | inhibition at 10 µM [4]: 22% | IC50 [2]: > 100000 nM | inhibition at 10 µM ([2]; IL-1β 10 ng/ml, 22 hours): < 20%

CCn1c(-c2ccccc2)cc2cc(NC(=O)c3cc([N+](=O)[O-])ccc3Cl)ccc21 [Compound 12]
inhibition at 10 µM ([1]; IL-1β 10 ng/ml, 22 hours): 75% | inhibition at 10 µM ([2]; IL-1β 10 ng/ml, 22 hours): < 20%

CCn1c(-c2ccccc2)cc2cc(NC(=O)c3cc(Cl)ccc3Cl)ccc21 [Compound 13]
IC50 [1]: 794 nM | inhibition at 10 µM ([1]; IL-1β 10 ng/ml, 22 hours): 100% | inhibition at 10 µM [4]: 30% | inhibition at 10 µM ([2]; IL-1β 10 ng/ml, 22 hours): 36%

CCn1c(-c2ccccc2)cc2cc(NC(=O)c3ccccc3[N+](=O)[O-])ccc21 [Compound 16]
inhibition at 10 µM ([1]; IL-1β 10 ng/ml, 22 hours): 74% | inhibition at 10 µM ([2]; IL-1β 10 ng/ml, 22 hours): < 20%

CCn1c(-c2ccccc2C)cc2cc(NC(=O)c3ccccc3Cl)ccc21 [Compound 18]
IC50 [1]: 2510 nM | inhibition at 10 µM ([1]; IL-1β 10 ng/ml, 22 hours): 66% | inhibition at 10 µM [4]: < 20% | inhibition at 10 µM ([2]; IL-1β 10 ng/ml, 22 hours): < 20%

CCn1c(-c2cccc(C)c2)cc2cc(NC(=O)c3ccccc3Cl)ccc21 [Compound 19]
IC50 [1]: 1000 nM | inhibition at 10 µM ([1]; IL-1β 10 ng/ml, 22 hours): 87% | inhibition at 10 µM [4]: < 20% | IC50 [2]: 100000 nM | inhibition at 10 µM ([2]; IL-1β 10 ng/ml, 22 hours): 43%

CCn1c(-c2ccc(C)cc2)cc2cc(NC(=O)c3ccccc3Cl)ccc21 [Compound 20]
IC50 [1]: 3160 nM | inhibition at 10 µM ([1]; IL-1β 10 ng/ml, 22 hours): 75% | inhibition at 10 µM [4]: < 20% | IC50 [2]: > 100000 nM | inhibition at 10 µM ([2]; IL-1β 10 ng/ml, 22 hours): < 20%

CCOc1ccc(-c2cc3cc(NC(=O)c4ccccc4Cl)ccc3n2CC)cc1 [Compound 21]
inhibition at 10 µM ([1]; IL-1β 10 ng/ml, 22 hours): 66% | inhibition at 10 µM ([2]; IL-1β 10 ng/ml, 22 hours): < 20%

CCn1c(-c2ccc(OCc3ccccc3)cc2)cc2cc(NC(=O)c3ccccc3Cl)ccc21 [Compound 22]
inhibition at 10 µM ([1]; IL-1β 10 ng/ml, 22 hours): 79% | inhibition at 10 µM ([2]; IL-1β 10 ng/ml, 22 hours): < 20%

CCn1c(-c2cccc3ccccc23)cc2cc(NC(=O)c3ccccc3Cl)ccc21 [Compound 24]
inhibition at 10 µM ([1]; IL-1β 10 ng/ml, 22 hours): 79% | inhibition at 10 µM ([2]; IL-1β 10 ng/ml, 22 hours): < 20%

CCn1c(-c2ccc(Cl)c(C)c2)cc2cc(NC(=O)c3ccccc3Cl)ccc21 [Compound 25]
inhibition at 10 µM ([1]; IL-1β 10 ng/ml, 22 hours): 89% | inhibition at 10 µM ([2]; IL-1β 10 ng/ml, 22 hours): < 20%

CCn1c(-c2cccc(Cl)c2C)cc2cc(NC(=O)c3ccccc3Cl)ccc21 [Compound 28]
inhibition at 10 µM ([1]; IL-1β 10 ng/ml, 22 hours): 65% | inhibition at 10 µM ([2]; IL-1β 10 ng/ml, 22 hours): < 20%

CCn1c(-c2ccc(C)c(C)c2)cc2cc(NC(=O)c3ccccc3Cl)ccc21 [Compound 29]
inhibition at 10 µM ([1]; IL-1β 10 ng/ml, 22 hours): 91% | inhibition at 10 µM ([2]; IL-1β 10 ng/ml, 22 hours): < 20%

CCn1c(-c2ccc(OC)cc2)cc2cc(NC(=O)c3ccccc3Cl)ccc21 [Compound 30]
inhibition at 10 µM ([1]; IL-1β 10 ng/ml, 22 hours): 75% | inhibition at 10 µM ([2]; IL-1β 10 ng/ml, 22 hours): < 20%

COc1ccc2c(c1)c(CC(=O)O)c(C)n2C(=O)c1ccc(Cl)cc1 [Indomethacin, indomethacin, reference compound]
IC50 [1]: 5.01 nM | inhibition at 0.01 µM [1, 5]: 100% | inhibition at 0.01 µM ([4]; indomethacin at 10 nM): 78% | IC50 [2]: 2.51 nM | inhibition at 0.01 µM [2, 5]: 100%
